{"source": "patent US20110319451A1", "about": "“5-Ht6 Receptor and Modulators Thereof for the Treatment of Insulin-Related Disorders” (priority 2008, published 2011)", "key": {"rat 5-HT6 receptor": {"target": "rat 5-HT6 receptor (Rattus norvegicus, UniProt P31388)", "sequence (P31388 whole entry)": "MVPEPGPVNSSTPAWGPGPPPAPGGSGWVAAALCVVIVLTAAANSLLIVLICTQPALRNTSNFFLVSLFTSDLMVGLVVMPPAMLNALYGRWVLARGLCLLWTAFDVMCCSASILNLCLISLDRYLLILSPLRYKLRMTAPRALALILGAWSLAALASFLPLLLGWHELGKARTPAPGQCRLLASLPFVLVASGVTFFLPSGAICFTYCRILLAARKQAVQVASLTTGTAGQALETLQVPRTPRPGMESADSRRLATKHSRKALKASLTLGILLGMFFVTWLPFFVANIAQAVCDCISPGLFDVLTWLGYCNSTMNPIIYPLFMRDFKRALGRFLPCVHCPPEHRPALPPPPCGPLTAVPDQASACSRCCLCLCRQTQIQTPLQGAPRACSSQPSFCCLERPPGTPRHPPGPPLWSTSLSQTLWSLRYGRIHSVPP", "settings": "cited from earlier work"}, "[1]": {"target": "cloned human 5-HT6 subtype (Homo sapiens, UniProt P50406)", "sequence (P50406 whole entry)": "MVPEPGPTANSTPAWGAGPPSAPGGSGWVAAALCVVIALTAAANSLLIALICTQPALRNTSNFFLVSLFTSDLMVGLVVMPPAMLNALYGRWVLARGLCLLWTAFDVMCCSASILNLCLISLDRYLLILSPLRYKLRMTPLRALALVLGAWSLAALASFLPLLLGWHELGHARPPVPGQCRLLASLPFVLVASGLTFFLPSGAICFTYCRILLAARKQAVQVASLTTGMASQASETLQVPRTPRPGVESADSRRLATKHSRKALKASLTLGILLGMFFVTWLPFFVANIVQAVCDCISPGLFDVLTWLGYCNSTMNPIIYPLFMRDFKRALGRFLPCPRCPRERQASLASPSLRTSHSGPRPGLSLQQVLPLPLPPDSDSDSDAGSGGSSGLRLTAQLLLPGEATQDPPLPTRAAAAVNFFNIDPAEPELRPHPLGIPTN", "settings": "cited from earlier work"}, "DIO female rats": {"system": "DIO female rats", "settings": "cited from earlier work; for cumulative weekly food intake: DIO female rats; for weight-loss versus control: after 28 days of administration, DIO rats"}, "female DIO rat model": {"system": "female DIO rat model", "settings": "cited from earlier work"}, "C57/Bl6 mice": {"system": "C57/Bl6 mice", "experiment": "oral glucose tolerance test (oGTT) in C57/Bl6 mice", "format": "in vivo, mouse", "settings": "1, 3.3 or 10 mpk oral, 30 min before glucose bolus 3 gram/kg, FIG. 5", "description": "(§1) Thirty minutes later, a glucose bolus (3 gram/kg) was then delivered per orally. Plasma glucose levels were determined at indicated time points over a two hour period using blood (˜5 μl) collected from tail nick and a glucose meter. Glycemic excursion curve was graphed based on data from 6 mice and given in mean values +/−SEM (FIG. 5 upper left panel)."}, "C57bl/6 male mice [2]": {"system": "C57bl/6 male mice", "experiment": "insulin release in response to a glucose bolus in mice", "format": "in vivo, mouse", "settings": "10 mpk oral; 5, 10 and 20 minutes after glucose bolus 3 g/kg, FIG. 5", "description": "C57bl/6 male mice (8 weeks of age) were fasted for 18 hours, and randomly assigned into eight groups with n=6 for each group. Mice were administered per orally with vehicle (20% HPCD) or with 10 mpk EMD 386088. After 30 minutes, a glucose bolus of 3 g/kg was administered orally. Blood was collected in heparinated blood collection tubes at 0 minute (no glucose bolus), 5 minutes, 10 minutes, and 20 minutes after glucose bolus. Plasma samples were obtained via centrifugation at 500×g for 20 minutes and assayed for insulin using an Ultra Sensitive Insulin ELISA kit (Crystal Chem. Inc., Downers Grove, Ill.)."}, "C57bl/6 male mice [3]": {"system": "C57bl/6 male mice", "experiment": "plasma glucose levels (hypoglycemia) in fasted mice", "format": "in vivo, mouse", "settings": "10 mpk or 30 mpk oral, 0-120 minutes post-dosing, FIG. 7", "description": "Plasma glucose levels were determined at 0 minute (right before dosing), and 30, 60, 90, and 120 minutes post-dosing using blood (˜5 μl) collected from tail nick and a glucose meter. Glycemic changes were graphed based on data from 6 mice and given in mean values +/−SEM."}, "[4]": {"system": "db/db mutant diabetic mice", "experiment": "oGTT in diabetic db/db mice", "format": "in vivo, mouse", "settings": "3.3, 10 or 30 mpk oral, glucose bolus 2 gram/kg, FIG. 8", "description": "as §1, with “(2” for “(3”, “+/−SEM.” for “+/−SEM (FIG. 5 upper left panel).”"}, "[5]": {"settings": "30 mg/kg i.p., daily for 3 days, growing rats; cited from earlier work"}, "5-HT6 receptor": {"target": "5-HT6 receptor (Homo sapiens, UniProt P50406)", "sequence (P50406 whole entry)": "as above", "settings": "cited from earlier work"}, "[6]": {"system": "normal lean and DIO female rats", "settings": "cited from earlier work"}}}
{"compound": "CN(C)CCc1c[nH]c2ccc(NS(=O)(=O)c3ccc4c(Cl)cccc4c3)cc12", "note": "[Compound E-6837]", "values": [{"measurement": "functionality at rat 5-HT6 receptor", "setting": "rat 5-HT6 receptor", "value": "partial agonist"}, {"measurement": "functionality at cloned human 5-HT6 subtype", "setting": "[1]", "value": "full agonist"}, {"measurement": "cumulative weekly food intake", "setting": "DIO female rats", "value": "significantly decreased consumption during the first, second and third weeks of treatment"}, {"measurement": "weight-loss versus control", "setting": "DIO female rats", "value": 15.7, "unit": "%"}, {"measurement": "body composition of weight-loss", "setting": "DIO female rats; rat, in vivo", "value": "selective reduction in body fat with no changes in either water or protein content"}, {"measurement": "food intake and adiposity", "setting": "female DIO rat model", "value": "reduce food intake and adiposity"}]}
{"compound": "Cc1[nH]c2ccc(Cl)cc2c1C1=CCNCC1", "note": "[Compound A, 5-Chloro-2-methyl-3-(1,2,3,6-tetrahydro-pyridin-4-yl)-1H-indole]", "values": [{"measurement": "glucose excursion in oGTT", "setting": "C57/Bl6 mice", "value": "improved glucose excursion in a dose-dependent fashion"}, {"measurement": "insulin release compared to vehicle", "setting": "C57bl/6 male mice [2]", "value": "increased insulin release"}, {"measurement": "hypoglycemia (plasma glucose levels) compared to control", "setting": "C57bl/6 male mice [3]", "value": "did not cause hypoglycemia"}, {"measurement": "plasma glucose concentration over time in oGTT compared to control", "setting": "[4]", "value": "dose dependent decrease in plasma glucose concentration"}]}
{"compound": "CNc1cc(NS(=O)(=O)c2ccc(N)cc2)nc(NC)n1", "note": "[Ro 04-6790]", "values": [{"measurement": "body weight-gain", "setting": "[5]", "value": "significantly attenuated body weight-gain"}]}
{"compound": "COc1cc(Cl)cc(C(C)Nc2cc(N3CCNCC3)ccc2S(C)(=O)=O)c1OC.Cl", "note": "(centres unmarked) [PRX-07034]", "values": [{"measurement": "Ki", "setting": "5-HT6 receptor", "value": 4, "unit": "nM"}, {"measurement": "food intake and adiposity", "setting": "female DIO rat model", "value": "reduce food intake and adiposity"}, {"measurement": "food intake", "setting": "[6]; acute studies, normal lean and DIO female rats", "value": "inhibited food intake"}, {"measurement": "aversive effect", "setting": "[6]; rat, in vivo", "value": "no aversive effect"}]}
{"compound": "CC(C)CC(N(C)C)C1(c2ccc(Cl)cc2)CCC1", "note": "(centres unmarked) [sibutramine]", "values": [{"measurement": "cumulative weekly food intake", "setting": "DIO female rats", "value": "significantly reduced food intake only during the first week"}, {"measurement": "weight-loss versus control", "setting": "DIO female rats", "value": 11.0, "unit": "%"}]}
